Test results published in patent publication US20220281848A1, “PYRAZOLE-SUBSTITUTED PYRROLIDINONES AS HERBICIDES” (FMC Corporation, priority 2019, published 2022).

Tested on: plants
Experiment: Test D pre-emergence, other plants of Tables D1 and D3
Format: in vivo
Details: pre-emergence, 100=total damage, 0=no damage; for ALOMY damage rating / AVEFA damage rating / BEAVA damage rating / BROTE damage rating / BRSNN damage rating / CHEAL damage rating / GALAP damage rating / HORVW damage rating / KCHSC damage rating / LOLPE damage rating / POAAN damage rating / SINAR damage rating / STEME damage rating / VERPE damage rating: 20 DAA
Method in brief: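 Seeds treated with herbicide safener; sown in soil; glasshouse, 16 h light, 65% humidity. Sprayed day 1 (pre) or ~day 12 (post). Spray in 0.2% v/v adjuvant. Scored 0–100 damage: 20 DAA pre, 15 d post.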

In the case of `CN1CC(c2cc(Cl)n(C)n2)C(C(=O)Nc2ccc(F)c(F)c2F)C1=O` (racemic) [Compound 31], the ALOMY damage rating (Rates 15) is reported as 0, the ALOMY damage rating (Rates 30) is reported as 0 and the AVEFA damage rating (Rates 15) is reported as 0. For the same molecule, the AVEFA damage rating (Rates 30) was 0, the BEAVA damage rating (Rates 15) was 0 and the BEAVA damage rating (Rates 30) was 0. For the same molecule, the BROTE damage rating (Rates 15) was 0, the BROTE damage rating (Rates 30) was 0 and the BRSNN damage rating (Rates 15) was 0. It also gave a BRSNN damage rating (Rates 30) of 0, a CHEAL damage rating (Rates 15) of 0 and a CHEAL damage rating (Rates 30) of 0. The CHEAL damage rating (Rates 60) was 0, the CHEAL damage rating (Rates 130) was 0 and the CHEAL damage rating (Rates 250) was 0. For the same molecule, the CHEAL damage rating (Rates 500) was 20, the GALAP damage rating (Rates 15) was 0 and the GALAP damage rating (Rates 30) was 0. For the same molecule, the GALAP damage rating (Rates 60) was 0, the GALAP damage rating (Rates 130) was 0 and the GALAP damage rating (Rates 250) was 0. The GALAP damage rating (Rates 500) was 0, the HORVW damage rating (Rates 15) was 0 and the HORVW damage rating (Rates 30) was 0. For the same molecule, the KCHSC damage rating (Rates 15) was 0, the KCHSC damage rating (Rates 30) was 0 and the KCHSC damage rating (Rates 60) was 0. The KCHSC damage rating (Rates 130) was 0, the KCHSC damage rating (Rates 250) was 0 and the KCHSC damage rating (Rates 500) was 0. It also gave an LOLPE damage rating (Rates 15) of 0, an LOLPE damage rating (Rates 30) of 0 and an LOLPE damage rating (Rates 60) of 0. For the same molecule, the LOLPE damage rating (Rates 130) was 0, the LOLPE damage rating (Rates 250) was 0 and the LOLPE damage rating (Rates 500) was 0. For the same molecule, the POAAN damage rating (Rates 15) was 0, the POAAN damage rating (Rates 30) was 0 and the POAAN damage rating (Rates 60) was 0. For the same molecule, the POAAN damage rating (Rates 130) was 0, the POAAN damage rating (Rates 250) was 0 and the POAAN damage rating (Rates 500) was 10. For the same molecule, the SINAR damage rating (Rates 15) was 0, the SINAR damage rating (Rates 30) was 0 and the STEME damage rating (Rates 15) was 0. For the same molecule, the STEME damage rating (Rates 30) was 0, the STEME damage rating (Rates 60) was 0 and the STEME damage rating (Rates 130) was 0. The STEME damage rating (Rates 250) was 0, the STEME damage rating (Rates 500) was 10 and the VERPE damage rating (Rates 15) was 0. For the same molecule, the VERPE damage rating (Rates 30) was 0, the VERPE damage rating (Rates 60) was 0 and the VERPE damage rating (Rates 130) was 0. The VERPE damage rating (Rates 250) was 30, the VERPE damage rating (Rates 500) was 50 and the “damage to plant, ALOMY” value (rate 60, 20 DAA) was 0. The “damage to plant, AVEFA” value (rate 60, 20 DAA) was 0, the “damage to plant, BEAVA” value (rate 60, 20 DAA) was 0 and the “damage to plant, BROTE” value (rate 60, 20 DAA) was 0. For the same molecule, the “damage to plant, BRSNN” value (rate 60, 20 DAA) was 0, the “damage to plant, HORVW” value (rate 60, 20 DAA) was 0 and the “damage to plant, SINAR” value (rate 60, 20 DAA) was 0. For the same molecule, the “damage to plant, ALOMY” value (rate 130, 20 DAA) was 0, the “damage to plant, AVEFA” value (rate 130, 20 DAA) was 0 and the “damage to plant, BEAVA” value (rate 130, 20 DAA) was 0. For the same molecule, the “damage to plant, BROTE” value (rate 130, 20 DAA) was 0, the “damage to plant, BRSNN” value (rate 130, 20 DAA) was 0 and the “damage to plant, HORVW” value (rate 130, 20 DAA) was 0. For the same molecule, the “damage to plant, SINAR” value (rate 130, 20 DAA) was 0, the “damage to plant, ALOMY” value (rate 250, 20 DAA) was 0 and the “damage to plant, AVEFA” value (rate 250, 20 DAA) was 0. The “damage to plant, BEAVA” value (rate 250, 20 DAA) was 0, the “damage to plant, BROTE” value (rate 250, 20 DAA) was 0 and the “damage to plant, BRSNN” value (rate 250, 20 DAA) was 0. For the same molecule, the “damage to plant, HORVW” value (rate 250, 20 DAA) was 0, the “damage to plant, SINAR” value (rate 250, 20 DAA) was 0 and the “damage to plant, ALOMY” value (rate 500, 20 DAA) was 0. For the same molecule, the “damage to plant, AVEFA” value (rate 500, 20 DAA) was 10, the “damage to plant, BEAVA” value (rate 500, 20 DAA) was 0 and the “damage to plant, BROTE” value (rate 500, 20 DAA) was 10. For the same molecule, the “damage to plant, BRSNN” value (rate 500, 20 DAA) was 0, the “damage to plant, HORVW” value (rate 500, 20 DAA) was 20 and the “damage to plant, SINAR” value (rate 500, 20 DAA) was 20.
